Laboratory results from patent publication US8785468B2, “Phenylalanine amide derivatives useful for treating insulin-related diseases and conditions” (Amgen Inc., priority 2009, dated 2014).
Counter-ions that a name gives are not always drawn.

Biological target: T1, human receptor found in pancreatic islet cells (Homo sapiens, UniProt Q7Z601)
T1 sequence (Q7Z601 1-462): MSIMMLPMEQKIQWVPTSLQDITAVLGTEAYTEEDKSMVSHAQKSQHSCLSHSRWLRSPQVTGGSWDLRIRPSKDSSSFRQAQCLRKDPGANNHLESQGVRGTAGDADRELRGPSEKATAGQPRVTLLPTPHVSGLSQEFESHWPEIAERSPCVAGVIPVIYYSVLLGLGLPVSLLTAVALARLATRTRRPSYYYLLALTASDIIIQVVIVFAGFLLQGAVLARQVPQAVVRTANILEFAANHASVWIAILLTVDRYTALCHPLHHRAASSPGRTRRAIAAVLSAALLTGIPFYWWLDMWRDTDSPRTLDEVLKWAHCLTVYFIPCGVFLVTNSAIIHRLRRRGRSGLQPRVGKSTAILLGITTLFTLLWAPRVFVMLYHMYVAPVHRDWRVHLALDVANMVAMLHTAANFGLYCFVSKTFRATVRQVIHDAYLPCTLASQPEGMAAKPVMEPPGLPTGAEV
Test: Activation of intracellular IP3 signaling in transfected cells (Activation Assay)
Format: cell-based
Conditions: calculated from IP3 concentration measurements in cells transfected with the human receptor
Method: Table 12 provides exemplary compounds that were prepared and assessed, following protocols known to those of skilled in the art, for activation of intracellular inositol trisphosphate (IP3) signaling pathways that lead to elevation of intracellular calcium concentration. EC50 values provided in Table 12 were calculated from IP3 concentration measurements in cells transfected with a human receptor found in pancreatic islet cells, inter alia.

| Compound | EC50 |
| --- | --- |
| COC(=O)c1cc(-c2ccncc2)cc2c1CCN2C(=O)[C@H](Cc1ccc(F)cc1)NCc1cscn1 [Example 54.5, (S)-Methyl 1-(3-(4-fluorophenyl)-2-(thiazol-4-ylmethylamino)propanoyl)-6-(pyridin-4-yl)indoline-4-carboxylate] | 0.05 to 0.1 µM |
| COC(=O)c1cc(-c2ccncc2)cc2c1CCN2C(=O)[C@H](Cc1ccc(F)cc1)NCc1cc[nH]n1 [Example 54.6, (S)-Methyl 1-(2-((1H-pyrazol-3-yl)methylamino)-3-(4-fluorophenyl)propanoyl)-6-(pyridin-4-yl)indoline-4-carboxylate] | 0.05 to 0.1 µM |
| COC(=O)c1cc(-c2ccncc2)cc2c1CCN2C(=O)[C@H](Cc1ccc(F)cc1)NCc1ccccn1 [Example 54.7, (S)-Methyl 1-(3-(4-fluorophenyl)-2-(pyridin-2-ylmethylamino)propanoyl)-6-(pyridin-4-yl)indoline-4-carboxylate] | 0.05 to 0.1 µM |
| COC(=O)c1cc(-c2ccncc2)cc2c1CCN2C(=O)[C@H](Cc1ccccc1)NCc1cscn1 [Example 54.8, TFA salt] | 0.1 to 1 µM |
| CN(C)C(=O)c1cc(NC(=O)[C@H](Cc2ccccc2)NCc2cscn2)cc(-c2ccncc2)c1 [Example 55, (S)—N,N-Dimethyl-3-(3-phenyl-2-(thiazol-4-ylmethylamino)propanamido)-5-(pyridin-4-yl)benzamide] | 0.1 to 1 µM |
| Cc1cc(-c2ccc3c(c2)N(C(=O)[C@H](Cc2ccccc2)NCc2cscn2)CC3)ccn1 [Example 56, (2S)-1-(6-(2-Methylpyridin-4-yl)indolin-1-yl)-3-phenyl-2-(thiazol-4-ylmethylamino)propan-1-one] | 0.05 to 0.1 µM |
| O=C([C@H](Cc1ccccc1)NCc1cscn1)N1CCc2c(-c3n[nH]c(=O)o3)cc(-c3ccncc3)cc21 [Example 57, (S)-5-(1-(3-Phenyl-2-(thiazol-4-ylmethylamino)propanoyl)-6-(pyridin-4-yl)indolin-4-yl)-1,3,4-oxadiazol-2(3H)-oneTFA salt] | 0.05 to 0.1 µM |
| O=C([C@H](Cc1ccccc1)NCc1cscn1)N1CCc2c(-c3n[nH]c(=S)o3)cc(-c3ccncc3)cc21 [Example 58, (S)-3-Phenyl-1-(6-(pyridin-4-yl)-4-(5-thioxo-4,5-dihydro-1,3,4-oxadiazol-2-yl)indolin-1-yl)-2-(thiazol-4-ylmethylamino)propan-1-one] | < 0.05 µM |
| NC(=O)c1cc(-c2ccncc2)cc2c1CCN2C(=O)[C@H](Cc1ccccc1)NCc1cscn1 [Example 60, (S)-1-(3-Phenyl-2-(thiazol-4-ylmethylamino)propanoyl)-6-(pyridin-4-yl)indoline-4-carboxamide] | 0.1 to 1 µM |
| Cn1ncnc1-c1cc(-c2ccncc2)cc2c1CCN2C(=O)[C@H](Cc1ccccc1)NCc1cscn1 [Example 61, (2S)-1-(4-(2-Methyl-2H-1,2,4-triazol-3-yl)-6-(pyridin-4-yl)indolin-1-yl)-3-phenyl-2-(thiazol-4-ylmethylamino)propan-1-one] | 1 to 10 µM |
| CNC(=O)c1cc(-c2ccncc2)cc2c1CCN2C(=O)[C@H](Cc1ccccc1)NCc1cscn1 [Example 62, (S)—N-Methyl-1-(3-phenyl-2-(thiazol-4-ylmethylamino)propanoyl)-6-(pyridin-4-yl)indoline-4-carboxamide] | 0.1 to 1 µM |
| CC(C)(C(=O)O)c1cc(NC(=O)[C@H](Cc2ccc(Cl)cc2)NCc2cscn2)cc(-c2ccncc2)c1 [Example 63.1, (S)-2-(3-(3-(4-Chlorophenyl)-2-(thiazol-4-ylmethylamino)propanamido)-5-(pyridin-4-yl)phenyl)-2-methylpropanoic acid] | 0.1 to 1 µM |
| CC(C)(C(=O)O)c1cc(NC(=O)[C@H](Cc2ccccc2)NC[C@H]2CCCO2)cc(-c2ccncc2)c1 [Example 63.2] | 1 to 10 µM |
| COC(=O)COc1ccc(-c2ccnc(C)c2)cc1NC(=O)[C@H](Cc1ccccc1)NCc1cscn1 [Example 64, Methyl 2-(4-(2-methylpyridin-4-yl)-2-((S)-3-phenyl-2-(thiazol-4-ylmethylamino)propanamido)phenoxy)acetate] | 0.05 to 0.1 µM |
| COC(=O)COc1cc(NC(=O)[C@H](Cc2ccccc2)NCc2cscn2)cc(-c2ccnc(C)c2)c1 [Example 65, Methyl 2-(3-(2-methylpyridin-4-yl)-5-((S)-3-phenyl-2-(thiazol-4-ylmethylamino)propanamido)phenoxy)acetate] | 0.1 to 1 µM |
| Cc1cc(-c2cc(-c3n[nH]c(=S)o3)c3c(c2)N(C(=O)[C@H](Cc2ccccc2)NCc2cscn2)CC3)ccn1 [Example 66, (2S)-1-(6-(2-Methylpyridin-4-yl)-4-(5-thioxo-4,5-dihydro-1,3,4-oxadiazol-2-yl)indolin-1-yl)-3-phenyl-2-(thiazol-4-ylmethylamino)propan-1-one] | < 0.05 µM |
| Cc1nnc(-c2cc(-c3ccncc3)cc3c2CCN3C(=O)[C@H](Cc2ccccc2)NCc2cscn2)o1 [Example 67, (2S)-1-(4-(5-Methyl-1,3,4-oxadiazol-2-yl)-6-(pyridin-4-yl)indolin-1-yl)-3-phenyl-2-(thiazol-4-ylmethylamino)propan-1-one] | 0.05 to 0.1 µM |
| O=C([C@H](Cc1ccccc1)NCc1cscn1)N1CCc2c(-c3nnco3)cc(-c3ccncc3)cc21 [Example 68, (2S)-1-(4-(1,3,4-Oxadiazol-2-yl)-6-(pyridin-4-yl)indolin-1-yl)-3-phenyl-2-(thiazol-4-ylmethylamino)propan-1-one] | 0.1 to 1 µM |
| Cc1nnc(-c2cc(-c3ccncc3)cc3c2CCN3C(=O)[C@H](Cc2ccccc2)NCc2cscn2)[nH]1 [Example 69, (2S)-1-(4-(5-Methyl-4H-1,2,4-triazol-3-yl)-6-(pyridin-4-yl)indolin-1-yl)-3-phenyl-2-(thiazol-4-ylmethylamino)propan-1-one] | 0.05 to 0.1 µM |
| O=C(NCC1CC1)c1cc(NC(=O)[C@H](Cc2ccccc2)NCc2cscn2)cc(-c2ccncc2)c1 [Example 70, (S)—N-(Cyclopropylmethyl)-3-(3-phenyl-2-(thiazol-4-ylmethylamino)propanamido)-5-(pyridin-4-yl)benzamide] | 0.05 to 0.1 µM |
| NC(=O)CNC(=O)c1cc(-c2ccncc2)cc2c1CCN2C(=O)[C@H](Cc1ccccc1)NCc1cscn1 [Example 71, (S)—N-(2-Amino-2-oxoethyl)-1-(3-phenyl-2-(thiazol-4-ylmethylamino)propanoyl)-6-(pyridin-4-yl)indoline-4-carboxamide] | 0.05 to 0.1 µM |
| COC(=O)c1cc(-c2ccnc(C)c2)cc2c1CCN2C(=O)[C@H](Cc1ccccc1)NCc1ccccn1 [Example 72, Methyl 6-(2-methylpyridin-4-yl)-1-((S)-3-phenyl-2-(pyridin-2-ylmethylamino)propanoyl)indoline-4-carboxylate] | 0.05 to 0.1 µM |
| CC(C)(C)OC(=O)c1cc(NC(=O)[C@H](Cc2ccccc2)NC2(c3ccccn3)CC2)cc(-c2ccncc2)c1 [Example 73, (S)— tert-Butyl 3-(3-phenyl-2-(1-(pyridin-2-yl)cyclopropylamino)propanamido)-5-(pyridin-4-yl)benzoate] | 0.1 to 1 µM |
| CN(C)CCNC(=O)c1cc(NC(=O)[C@H](Cc2ccccc2)NCc2cscn2)cc(-c2ccncc2)c1 [Example 74, (S)—N-(2-(dimethylamino)ethyl)-3-(3-phenyl-2-(thiazol-4-ylmethylamino)propanamido)-5-(pyridin-4-yl)benzamide bis trifluoroacetate salt] | 0.1 to 1 µM |
| Cc1cc(-c2ccc(OCCN(C)C)c(NC(=O)[C@H](Cc3ccccc3)NCc3cscn3)c2)ccn1 [Example 75, (2S)—N-(2-(2-(Dimethylamino)ethoxy)-5-(2-methylpyridin-4-yl)phenyl)-3-phenyl-2-(thiazol-4-ylmethylamino)propanamide trifluoroacetate] | 0.1 to 1 µM |
| Cc1cc(-c2cc(NC(=O)[C@H](Cc3ccccc3)NCc3ccccn3)cc(OCCN(C)C)c2)ccn1 [Example 76, (2S)—N-(3-(2-(Dimethylamino)ethoxy)-5-(2-methylpyridin-4-yl)phenyl)-3-phenyl-2-(pyridin-2-ylmethylamino)propanamide] | 0.1 to 1 µM |
| COC(=O)CNC(=O)c1cc(-c2ccncc2)cc2c1CCN2C(=O)[C@H](Cc1ccccc1)NCc1cscn1 [Example 77, (S)-Methyl 2-(1-(3-phenyl-2-(thiazol-4-ylmethylamino)propanoyl)-6-(pyridin-4-yl)indoline-4-carboxamido)acetate] | 0.1 to 1 µM |
| Cc1cc(-c2cnc(OCC(=O)OC(C)(C)C)c(NC(=O)[C@H](Cc3ccccc3)NCc3cscn3)c2)ccn1 [Example 78, tert-Butyl 2-(5-(2-methylpyridin-4-yl)-3-((S)-3-phenyl-2-(thiazol-4-ylmethylamino)propanamido)pyridin-2-yloxy)acetate] | < 0.05 µM |
| COC(=O)C1CN(Cc2cc(NC(=O)[C@H](Cc3ccccc3)NCc3cscn3)cc(-c3ccnc(C)c3)c2)C1 [Example 79] | 0.1 to 1 µM |
| COC(=O)C1CN(Cc2cc(NC(=O)[C@H](Cc3ccccc3)NCc3ccccn3)cc(-c3ccnc(C)c3)c2)C1 [Example 80, Methyl 1-((16S)-3-(2-methylpyridin-4-yl)-5-((S)-3-phenyl-2-(pyridin-2-ylmethylamino)propanamido)benzyl)azetidine-3-carboxylate] | 0.1 to 1 µM |
